Common to all, as to format: cell-based
In assay [1] the target is T1, CCR7 (Homo sapiens, UniProt P32248).
T1 construct: expressed in transfected cells; host or cells: HEK293, pcDB-CCR7 plasmid made in the authors' laboratory
T1 sequence (P32248 25-378): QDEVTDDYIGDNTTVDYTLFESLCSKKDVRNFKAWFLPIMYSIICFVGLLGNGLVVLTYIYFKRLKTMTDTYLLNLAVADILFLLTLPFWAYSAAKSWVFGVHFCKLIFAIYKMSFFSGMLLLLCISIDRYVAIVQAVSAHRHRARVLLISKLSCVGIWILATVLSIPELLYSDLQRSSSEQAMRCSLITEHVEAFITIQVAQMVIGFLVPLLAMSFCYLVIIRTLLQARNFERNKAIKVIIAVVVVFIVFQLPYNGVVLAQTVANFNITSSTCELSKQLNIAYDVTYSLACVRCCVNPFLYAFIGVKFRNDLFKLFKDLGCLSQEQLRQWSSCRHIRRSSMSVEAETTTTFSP
In words: Chemotaxis assay for receptor specificity, HEK293-CCR7. To be noted: compound as chemoattractant in lower chamber, 0.2, 1, 5, 25 μM. The procedure: (§1) HEK293 cells were transfected with different chemokine receptors. Compound 8a with DMSO was diluted to 0.2 mM, 1 mM, 5 mM and 25 mM, and then we used RPMI 1640 medium containing 0.1% BSA for dilution. The final concentration is: 0.2 μM, 1 μM, 5 μM and 25 μM. DMSO was also diluted 1000-fold with 0.1% BSA RPMI 1640 medium. Chemokines was also diluted to an appropriate concentration. The dilutions of Compound 8a, 1‰ DMSO, the corresponding chemokines of different receptors and 0.1% BSA RPMI 1640 medium were placed in the lower chambers (27.5 μl/well). The transfected HEK293 cells were resuspended in the same medium at a density of 1 × 10^6 cells/ml and added to the upper chambers (55 μl/well).

The target in assay [2] is T1, CCR7. In words: Chemotaxis inhibition assay for receptor specificity, HEK293-CCR7. To be noted: 0.2, 1, 5, 25 μM, 30 min pretreatment. The procedure:
HEK293 cells were transfected with different chemokine receptors. The corresponding chemokines of different receptors were placed in the lower chambers. The transfected cells were pretreated with different concentrations of Compound 8a or 1‰ DMSO for 30 min at a density of 1 × 10^6 cells/ml and added to the upper chambers, the final concentration of the compound is: 0.2 μM, 1 μM, 5 μM, and 25 μM, respectively.

A further assay concerns the target T2, CXCR3 (Homo sapiens, UniProt P49682).
T2 construct: expressed in transfected cells; host or cells: HEK293; plasmid from Chinese National Human Genome Center
T2 sequence (P49682 1-415 isoform P49682-2): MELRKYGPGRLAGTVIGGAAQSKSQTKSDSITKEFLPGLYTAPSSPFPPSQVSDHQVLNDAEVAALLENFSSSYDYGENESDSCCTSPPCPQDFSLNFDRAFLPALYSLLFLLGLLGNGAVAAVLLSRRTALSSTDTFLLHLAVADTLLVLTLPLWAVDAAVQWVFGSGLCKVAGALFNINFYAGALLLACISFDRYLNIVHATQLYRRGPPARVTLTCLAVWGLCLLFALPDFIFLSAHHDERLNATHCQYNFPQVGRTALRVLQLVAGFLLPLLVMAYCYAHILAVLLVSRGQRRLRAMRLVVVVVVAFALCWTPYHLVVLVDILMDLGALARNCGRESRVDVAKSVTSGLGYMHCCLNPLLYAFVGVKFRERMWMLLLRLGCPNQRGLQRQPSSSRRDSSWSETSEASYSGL
The assay is described as follows: Chemotaxis assay for receptor specificity, HEK293-CXCR3. To be noted: compound as chemoattractant in lower chamber, 0.2, 1, 5, 25 μM. Here is the method: as §1

The next assay deals with T3, CCR1 (Homo sapiens, UniProt P32246).
T3 construct: expressed in transfected cells; host or cells: HEK293; plasmid gift of Dr. Philip M. Murphy (NIAID, NIH)
T3 sequence (P32246 1-355): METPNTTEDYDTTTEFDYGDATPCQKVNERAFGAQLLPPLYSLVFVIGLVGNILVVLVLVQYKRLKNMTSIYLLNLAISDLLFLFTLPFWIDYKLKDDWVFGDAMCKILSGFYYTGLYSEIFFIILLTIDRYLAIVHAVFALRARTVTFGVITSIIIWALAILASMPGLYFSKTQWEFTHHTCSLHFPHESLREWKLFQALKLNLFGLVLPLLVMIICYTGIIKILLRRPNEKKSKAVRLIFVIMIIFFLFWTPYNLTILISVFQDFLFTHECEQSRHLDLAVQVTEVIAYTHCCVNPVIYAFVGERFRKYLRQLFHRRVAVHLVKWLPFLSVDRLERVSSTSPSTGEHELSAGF
The assay is described as follows: Chemotaxis assay for receptor specificity, HEK293-CCR1. To be noted: compound as chemoattractant in lower chamber, 0.2, 1, 5, 25 μM. The procedure: as §1

Each structure is given as a SMILES string.

The source of these data is PMC5678437, “A new antagonist for CCR4 attenuates allergic lung inflammation in a mouse model of asthma” (Scientific Reports, 2017).

Regarding `O=C(C1CCCCN1)N1CCN(c2nc(Cl)cc(NCc3ccc(Cl)cc3Cl)n2)CC1` (stereo not shown) [compound 8a, {4-[4-Chloro-6-(2,4-dichloro-benzylamino)-pyrimidin-2-yl]-piperazin-1-yl}-piperidin-2-yl-methanone], the “chemotaxis effect of the compound on HEK293-CCR7” value on CCR7 [1] was “didn’t exert chemotaxis effects”. In addition, the “inhibition of chemotaxis of HEK293-CCR7 to its ligand” value at CCR7 [2] was “few influence”. Further, the “chemotaxis effect of the compound on HEK293-CXCR3” value on CXCR3 was “didn’t exert chemotaxis effects”. For the same compound, the “chemotaxis effect of the compound on HEK293-CCR1” value at CCR1 is given as “didn’t exert chemotaxis effects”.
